One assay deals with T1, HiBiT-BRM (Homo sapiens, UniProt P51531).
T1 construct: expressed in transfected cells
The assay can be described thus: HiBiT-BRM cell-based degradation assay (Nano-Glo HiBiT Lytic Detection). To be noted: HeLa cells expressing HiBiT-BRM, 24 h; for DC50: read-out: BRM HiBit Degradation IC50. Summed up:
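HeLa cells stably expressing HiBiT-tagged BRM were treated for 24 h, then lysed with LgBiT-containing Nano-Glo reagent and luminescence read. % degradation scaled between DMSO (high control) and 2 μM reference BRM/BRG1 degrader (low control).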
For orientation: The HiBiT peptide binds its large partner to form an active luciferase.

In a further assay the target is T2, HiBit-BRG1 (Homo sapiens, UniProt P51532).
T2 construct: expressed in transfected cells
The assay can be described thus: HiBit-BRG1 cell-based degradation assay (Nano-Glo HiBiT Lytic Detection). Particulars: HeLa cells expressing HiBit-BRG1 and LgBit, 24 h; for DC50: read-out: BRG1 HiBit Degradation IC50; for Dmax: read-out: BRG1 HiBit Degradation Maximum (%). Summed up: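 Luminescence from reconstituted NanoBiT luciferase after lytic detection served as read-out of remaining HiBit-BRG1 in stable HeLa cells, which also express LgBit. Cells were seeded at 5000 per well and incubated with compound for 24 h. DMSO and a 2 μM known degrader defined the control range.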

Some results are limits rather than exact numbers.

T2 sequence (P51532 whole entry): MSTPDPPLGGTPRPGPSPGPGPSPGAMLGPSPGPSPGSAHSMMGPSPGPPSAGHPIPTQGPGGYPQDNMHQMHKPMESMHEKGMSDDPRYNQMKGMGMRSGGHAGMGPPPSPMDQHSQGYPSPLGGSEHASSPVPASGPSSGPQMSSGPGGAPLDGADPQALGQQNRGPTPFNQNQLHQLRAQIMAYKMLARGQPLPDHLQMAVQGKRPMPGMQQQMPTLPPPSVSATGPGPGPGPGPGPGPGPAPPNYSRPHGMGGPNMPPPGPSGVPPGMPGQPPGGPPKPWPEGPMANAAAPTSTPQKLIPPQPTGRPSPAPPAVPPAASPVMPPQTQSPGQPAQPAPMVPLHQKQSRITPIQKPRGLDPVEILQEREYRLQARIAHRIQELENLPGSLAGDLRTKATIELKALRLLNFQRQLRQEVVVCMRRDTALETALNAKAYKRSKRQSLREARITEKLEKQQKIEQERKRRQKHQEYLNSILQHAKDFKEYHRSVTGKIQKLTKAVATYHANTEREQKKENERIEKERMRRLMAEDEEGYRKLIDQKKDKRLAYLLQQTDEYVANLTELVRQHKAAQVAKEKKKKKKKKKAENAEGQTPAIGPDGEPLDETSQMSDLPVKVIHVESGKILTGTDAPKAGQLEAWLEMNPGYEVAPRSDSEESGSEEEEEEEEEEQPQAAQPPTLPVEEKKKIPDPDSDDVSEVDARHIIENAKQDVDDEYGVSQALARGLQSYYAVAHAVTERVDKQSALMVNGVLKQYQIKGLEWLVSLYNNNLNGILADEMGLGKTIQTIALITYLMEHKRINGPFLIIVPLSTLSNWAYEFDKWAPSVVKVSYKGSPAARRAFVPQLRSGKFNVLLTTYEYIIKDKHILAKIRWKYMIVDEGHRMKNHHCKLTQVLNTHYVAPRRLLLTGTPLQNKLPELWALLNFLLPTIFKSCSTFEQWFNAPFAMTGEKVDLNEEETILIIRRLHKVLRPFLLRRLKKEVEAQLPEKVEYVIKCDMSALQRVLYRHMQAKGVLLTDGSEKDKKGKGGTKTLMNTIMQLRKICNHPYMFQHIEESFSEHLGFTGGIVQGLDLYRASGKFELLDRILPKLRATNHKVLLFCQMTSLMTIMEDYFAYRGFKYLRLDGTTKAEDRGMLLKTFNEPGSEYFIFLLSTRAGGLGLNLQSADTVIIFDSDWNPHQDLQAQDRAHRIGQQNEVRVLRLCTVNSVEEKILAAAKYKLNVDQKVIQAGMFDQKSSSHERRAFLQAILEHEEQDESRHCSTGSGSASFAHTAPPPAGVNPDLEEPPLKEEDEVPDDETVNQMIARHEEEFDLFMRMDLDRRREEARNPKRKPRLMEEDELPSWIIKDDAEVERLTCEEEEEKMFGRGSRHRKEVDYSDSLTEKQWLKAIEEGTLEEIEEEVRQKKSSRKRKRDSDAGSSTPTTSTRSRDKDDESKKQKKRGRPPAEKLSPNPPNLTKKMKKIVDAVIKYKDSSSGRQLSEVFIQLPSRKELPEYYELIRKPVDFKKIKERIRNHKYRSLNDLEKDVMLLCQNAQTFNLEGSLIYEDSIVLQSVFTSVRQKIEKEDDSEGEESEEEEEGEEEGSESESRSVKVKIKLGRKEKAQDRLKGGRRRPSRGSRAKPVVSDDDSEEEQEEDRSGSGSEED
T1 sequence (P51531 whole entry): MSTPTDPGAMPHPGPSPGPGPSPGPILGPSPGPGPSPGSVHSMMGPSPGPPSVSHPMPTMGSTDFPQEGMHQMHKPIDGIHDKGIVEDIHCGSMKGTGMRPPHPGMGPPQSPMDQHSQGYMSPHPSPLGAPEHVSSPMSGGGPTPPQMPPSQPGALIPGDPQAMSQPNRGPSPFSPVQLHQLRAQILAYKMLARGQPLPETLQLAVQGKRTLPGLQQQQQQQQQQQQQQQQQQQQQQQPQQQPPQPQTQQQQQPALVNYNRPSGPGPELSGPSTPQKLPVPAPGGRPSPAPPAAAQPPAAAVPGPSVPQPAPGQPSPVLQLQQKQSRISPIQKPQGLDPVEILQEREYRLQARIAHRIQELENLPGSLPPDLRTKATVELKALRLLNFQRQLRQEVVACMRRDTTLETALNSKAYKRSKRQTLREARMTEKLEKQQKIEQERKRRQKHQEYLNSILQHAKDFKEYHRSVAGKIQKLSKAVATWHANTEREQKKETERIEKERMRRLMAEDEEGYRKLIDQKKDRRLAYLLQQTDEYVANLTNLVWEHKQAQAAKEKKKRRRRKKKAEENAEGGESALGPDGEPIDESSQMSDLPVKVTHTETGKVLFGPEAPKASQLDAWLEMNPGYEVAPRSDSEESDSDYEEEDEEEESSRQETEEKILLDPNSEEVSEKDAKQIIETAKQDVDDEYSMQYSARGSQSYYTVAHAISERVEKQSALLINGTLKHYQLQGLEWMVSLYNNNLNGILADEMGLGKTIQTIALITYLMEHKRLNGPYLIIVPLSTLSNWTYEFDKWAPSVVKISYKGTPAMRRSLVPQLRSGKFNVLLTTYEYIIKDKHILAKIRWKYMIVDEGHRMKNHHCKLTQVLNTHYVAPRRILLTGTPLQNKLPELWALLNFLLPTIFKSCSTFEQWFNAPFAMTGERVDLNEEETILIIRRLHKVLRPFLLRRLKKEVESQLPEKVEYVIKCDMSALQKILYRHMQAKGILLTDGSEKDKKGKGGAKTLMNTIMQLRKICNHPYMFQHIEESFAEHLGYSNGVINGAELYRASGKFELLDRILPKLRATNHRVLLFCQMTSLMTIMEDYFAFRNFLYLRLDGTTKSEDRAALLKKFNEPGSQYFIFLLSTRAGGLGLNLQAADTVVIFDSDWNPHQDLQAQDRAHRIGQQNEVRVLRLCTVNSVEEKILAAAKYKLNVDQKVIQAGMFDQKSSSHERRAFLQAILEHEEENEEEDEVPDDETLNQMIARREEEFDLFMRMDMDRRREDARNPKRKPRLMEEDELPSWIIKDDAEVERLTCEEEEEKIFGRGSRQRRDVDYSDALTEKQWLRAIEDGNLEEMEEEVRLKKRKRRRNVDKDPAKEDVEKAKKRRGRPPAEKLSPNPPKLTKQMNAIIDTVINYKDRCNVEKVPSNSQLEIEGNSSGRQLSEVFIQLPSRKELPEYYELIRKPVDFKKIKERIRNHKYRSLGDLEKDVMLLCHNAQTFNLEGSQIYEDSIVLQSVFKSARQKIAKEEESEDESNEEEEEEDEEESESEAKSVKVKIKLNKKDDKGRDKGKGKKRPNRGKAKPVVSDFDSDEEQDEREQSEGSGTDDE

As to `Cc1ncsc1-c1ccc(CNC(=O)[C@@H]2C[C@@H](O)CN2C(=O)[C@@H](NC(=O)CCCCCCCCC(=O)NCc2ccc(CCNc3cc(-c4ccccc4O)nnc3N)cc2)C(C)(C)C)cc1` [Compound 140, N′-[[4-(2-[[3-amino-6-(2-hydroxyphenyl)pyridazin-4-yl]amino]ethyl)phenyl]methyl]-N-[(2S)-1-[(2S,4R)-4-hydroxy-2-([[4-(4-methyl-1,3-thiazol-5-yl)phenyl]methyl]carbamoyl)pyrrolidin-1-yl]-3,3-dimethyl-1-oxobutan-2-yl]decanediamide], on HiBiT-BRM, the “BRM HiBit Degradation Maximum (%)” value was “A (“A” indicates maximum degradation ≥75%)” and the DC50 is > 0.1 µM. On HiBit-BRG1, the DC50 was > 1 µM and the Dmax was < 50%.

Take `Cc1ncsc1-c1ccc(CNC(=O)[C@@H]2C[C@@H](O)CN2C(=O)[C@@H](NC(=O)CCCC(=O)NCc2ccc(CCOc3cc(-c4ccccc4O)nnc3N)cc2)C(C)(C)C)cc1` [Compound 34]: on HiBiT-BRM, the “BRM HiBit Degradation Maximum (%)” value was “B (“B” indicates maximum degradation ≥50%)” and the DC50 was > 1 µM. In addition, on HiBit-BRG1, the DC50 was > 1 µM and the Dmax was < 50%.

Take `Cc1ncsc1-c1ccc(CNC(=O)[C@@H]2C[C@@H](O)CN2C(=O)[C@@H](NC(=O)CCCCCCCCCCCCCCCC(=O)NCc2ccc(CCOc3cc(-c4ccccc4O)nnc3N)cc2)C(C)(C)C)cc1` [Compound 32, N1-(4-(2-((3-amino-6-(2-hydroxyphenyl)pyridazin-4-yl)oxy)ethyl)benzyl)-N17-((S)-1-((2S,4R)-4-hydroxy-2-((4-(4-methylthiazol-5-yl)benzyl)carbamoyl)pyrrolidin-1-yl)-3,3-dimethyl-1-oxobutan-2-yl)heptadecanediamide]: at HiBiT-BRM, the “BRM HiBit Degradation Maximum (%)” value is recorded as “A (“A” indicates maximum degradation ≥75%)” and the DC50 was > 0.01 µM. Further, at HiBit-BRG1, the DC50 is > 1 µM and the Dmax is < 50%.

For `Cc1ncsc1-c1ccc(CNC(=O)[C@@H]2C[C@@H](O)CN2C(=O)[C@@H](NC(=O)CCCCCCCNC(=O)CN2CCN(c3cc(-c4ccccc4O)nnc3N)CC2)C(C)(C)C)cc1` [Compound 94, (2S,4R)-1-((S)-2-(8-(2-(4-(3-amino-6-(2-hydroxyphenyl)pyridazin-4-yl)piperazin-1-yl)acetamido)octanamido)-3,3-dimethylbutanoyl)-4-hydroxy-N-(4-(4-methylthiazol-5-yl)benzyl)pyrrolidine-2-carboxamide], at HiBiT-BRM, the “BRM HiBit Degradation Maximum (%)” value was “A (“A” indicates maximum degradation ≥75%)” and the DC50 was > 1 µM. Also, at HiBit-BRG1, the DC50 is > 1 µM and the Dmax is < 50%.

`Cc1ncsc1-c1ccc(CNC(=O)[C@@H]2C[C@@H](O)CN2C(=O)[C@@H](NC(=O)CCN2CC3(CN(CCC(=O)NCc4ccc(CCOc5cc(-c6ccccc6O)nnc5N)cc4)C3)C2)C(C)(C)C)cc1` [Compound 188, (2S,4R)-1-[(2S)-2-(3-[6-[2-([[4-(2-[[3-amino-6-(2-hydroxyphenyl)pyridazin-4-yl]oxy]ethyl)phenyl]methyl]carbamoyl)ethyl]-2,6-diazaspiro[3.3]heptan-2-yl]propanamido)-3,3-dimethylbutanoyl]-4-hydroxy-N-[[4-(4-methyl-1,3-thiazol-5-yl)phenyl]methyl]pyrrolidine-2-carboxamide]: at HiBiT-BRM, the “BRM HiBit Degradation Maximum (%)” value is on record as “C (“C” indicates maximum degradation <50%)” and the DC50 was > 1 µM. For the same compound, at HiBit-BRG1, the DC50 is > 1 µM and the Dmax is < 50%.

Take `Nc1nnc(-c2ccccc2O)cc1OCCc1ccc(CNC(=O)CCOCCOCCNc2cccc3c2C(=O)N(C2CCC(=O)NC2=O)C3=O)cc1` (stereo not drawn) [Compound 74, N-(4-(2-((3-amino-6-(2-hydroxyphenyl)pyridazin-4-yl)oxy)ethyl)benzyl)-3-(2-(2-((2-(2,6-dioxopiperidin-3-yl)-1,3-dioxoisoindolin-4-yl)amino)ethoxy)ethoxy)propanamide]: at HiBiT-BRM, the “BRM HiBit Degradation Maximum (%)” value is recorded as “C (“C” indicates maximum degradation <50%)” and the DC50 is > 1 µM. Also, at HiBit-BRG1, the DC50 was > 1 µM and the Dmax is < 50%.

Turning to `Nc1nnc(-c2ccccc2O)cc1OCCc1ccc(C(=O)NCCCCCOc2cccc3c2C(=O)N(C2CCC(=O)NC2=O)C3=O)cc1` (stereo not drawn) [Compound 21, 4-(2-[[3-amino-6-(2-hydroxyphenyl)pyridazin-4-yl]oxy]ethyl)-N-(5-[[2-(2,6-dioxopiperidin-3-yl)-1,3-dioxoisoindol-4-yl]oxy]pentyl)benzamide], on HiBiT-BRM, the “BRM HiBit Degradation Maximum (%)” value is given as “B (“B” indicates maximum degradation ≥50%)” and the DC50 is > 0.1 µM. At HiBit-BRG1, the DC50 is > 1 µM and the Dmax is < 50%.

As to `Nc1nnc(-c2ccccc2O)cc1OCCc1ccc(CNC(=O)CCCCOc2cccc3c2C(=O)N(C2CCC(=O)NC2=O)C3=O)cc1` (stereo not drawn) [Compound 67, N-[[4-(2-[[3-amino-6-(2-hydroxyphenyl)pyridazin-4-yl]oxy]ethyl)phenyl]methyl]-5-[[2-(2,6-dioxopiperidin-3-yl)-1,3-dioxoisoindol-4-yl]oxy]pentanamide], on HiBiT-BRM, the “BRM HiBit Degradation Maximum (%)” value is recorded as “A (“A” indicates maximum degradation ≥75%)” and the DC50 was > 0.1 µM. Besides, at HiBit-BRG1, the DC50 was > 1 µM and the Dmax is < 50%.

On to `Nc1nnc(-c2ccccc2O)cc1OCCc1ccc(CNC(=O)CCCCNc2cccc3nnn(C4CCC(=O)NC4=O)c(=O)c23)cc1` (stereo not drawn) [Compound 1, N-(4-(2-((3-amino-6-(2-hydroxyphenyl)pyridazin-4-yl)oxy)ethyl)benzyl)-5-((3-(2,6-dioxopiperidin-3-yl)-4-oxo-3,4-dihydrobenzo[d][1,2,3]triazin-5-yl)amino)pentanamide], for which the DC50 at HiBiT-BRM was > 0.1 µM; at HiBit-BRG1, > 1 µM.

On to `Nc1nnc(-c2ccccc2O)cc1N1CCN(C(=O)C2CC2CNC(=O)COc2ccc3c(c2)C(=O)N(C2CCC(=O)NC2=O)C3=O)CC1` (stereo not drawn) [Compound 78, N-[(2-[4-[3-amino-6-(2-hydroxyphenyl)pyridazin-4-yl]piperazine-1-carbonyl]cyclopropyl)methyl]-2-[[2-(2,6-dioxopiperidin-3-yl)-1,3-dioxoisoindol-5-yl]oxy]acetamide], for which, at HiBiT-BRM, the “BRM HiBit Degradation Maximum (%)” value is given as “C (“C” indicates maximum degradation <50%)” and the DC50 was > 1 µM. The DC50 at HiBit-BRG1 is > 1 µM.

For `Nc1nnc(-c2ccccc2O)cc1N1CCN(CC(=O)NCCCCCNc2ccc3c(c2)C(=O)N(C2CCC(=O)NC2=O)C3=O)CC1` (stereo not drawn) [Compound 87, 2-[4-[3-amino-6-(2-hydroxyphenyl)pyridazin-4-yl]piperazin-1-yl]-N-(5-[[2-(2,6-dioxopiperidin-3-yl)-1,3-dioxo-2,3-dihydro-1H-isoindol-5-yl]amino]pentyl)acetamide; formic acid], at HiBiT-BRM, the “BRM HiBit Degradation Maximum (%)” value is on record as “B (“B” indicates maximum degradation ≥50%)” and the DC50 was > 1 µM. For the same compound, on HiBit-BRG1, the DC50 is > 1 µM and the Dmax was > 50%.

Consider `Nc1nnc(-c2ccccc2O)cc1N1CCN(CC(=O)NCCCCS(=O)(=O)CCCNc2cccc3c2C(=O)N(C2CCC(=O)NC2=O)C3=O)CC1` (stereo not drawn) [Compound 80, 2-[4-[3-amino-6-(2-hydroxyphenyl)pyridazin-4-yl]piperazin-1-yl]-N-[4-(3-[[2-(2,6-dioxopiperidin-3-yl)-1,3-dioxoisoindol-4-yl]amino]propanesulfonyl)butyl]acetamide], for which, on HiBiT-BRM, the “BRM HiBit Degradation Maximum (%)” value was “C (“C” indicates maximum degradation <50%)” and the DC50 is > 1 µM. On HiBit-BRG1, the DC50 is > 1 µM and the Dmax is < 50%.

For the compound `Nc1nnc(-c2ccccc2O)cc1OCCc1ccc(C(=O)NCCC(=O)NCc2ccc(S(=O)(=O)Nc3cccc4c(Cl)c[nH]c34)cc2)cc1` [Compound 17, 3-[[4-(2-[[3-amino-6-(2-hydroxyphenyl)pyridazin-4-yl]oxy]ethyl)phenyl]formamido]-N-([4-[(3-chloro-1H-indol-7-yl)sulfamoyl]phenyl]methyl)propanamide], at HiBiT-BRM, the “BRM HiBit Degradation Maximum (%)” value was “C (“C” indicates maximum degradation <50%)” and the DC50 was > 1 µM. In addition, on HiBit-BRG1, the DC50 was > 1 µM and the Dmax was < 50%.

For the compound `Cc1ncsc1-c1ccc([C@H](C)NC(=O)[C@@H]2C[C@@H](O)CN2C(=O)[C@@H](c2cc(OCCN3CCN(CCC(=O)NCc4ccc(CCOc5cc(-c6ccccc6O)nnc5N)cc4)CC3)no2)C(C)C)cc1` [Compound 175, (2S,4R)-1-[(2R)-2-[3-(2-[4-[2-([[4-(2-[[3-amino-6-(2-hydroxyphenyl)pyridazin-4-yl]oxy]ethyl)phenyl]methyl]carbamoyl)ethyl]piperazin-1-yl]ethoxy)-1,2-oxazol-5-yl]-3-methylbutanoyl]-4-hydroxy-N-[(1S)-1-[4-(4-methyl-1,3-thiazol-5-yl)phenyl]ethyl]pyrrolidine-2-carboxamide], at HiBiT-BRM, the “BRM HiBit Degradation Maximum (%)” value was “A (“A” indicates maximum degradation ≥75%)” and the DC50 was > 0.01 µM. On HiBit-BRG1, the DC50 was > 0.1 µM and the Dmax is > 50%.

Regarding `Cc1ncsc1-c1ccc(CNC(=O)[C@H]2C[C@H](O)CN2C(=O)[C@H](NC(=O)CCCCCNC(=O)CN2CCN(c3cc(-c4ccccc4O)nnc3N)CC2)C(C)(C)C)cc1` (stereo in doubt) [Compound 101, (2R,4S)-1-[(2R)-2-[6-(2-[4-[3-amino-6-(2-hydroxyphenyl)pyridazin-4-yl]piperazin-1-yl]acetamido)hexanamido]-3,3-dimethylbutanoyl]-4-hydroxy-N-[[4-(4-methyl-1,3-thiazol-5-yl)phenyl]methyl]pyrrolidine-2-carboxamide], at HiBiT-BRM, the “BRM HiBit Degradation Maximum (%)” value is “B (“B” indicates maximum degradation ≥50%)” and the DC50 is > 1 µM. Also, on HiBit-BRG1, the DC50 is > 1 µM and the Dmax is < 50%.

Values taken from patent US20230150974A1 (Foghorn Therapeutics Inc., priority 2020, published 2023).
